In assay [1] the test system is Pancreatic Cancer Cells (PaCa2). Put plainly: Real-time PCR Diabetes Array. In kind it is cell-based. Conditions: 100 uM Q10, various times. The procedure: Experiments were carried out essentially as described above.
Another assay deals with Hif1 alpha. Put plainly: Western blot, Hif1 alpha levels. Conditions: for Hif1 alpha Lower Band Normalized Volume: HASMC. The format is cell-based, human. The procedure:
The Actin blots were stripped by incubating for 30 minutes with methanol, followed by two 10 minute washes with TBS-T, then 30 minutes of incubation with Stripping buffer at 50 deg C., and followed by two washes with 100 ml or more of TBS-T for 30′ each. The blots were scanned in laser scanner to check for complete stripping. The blots were activated with methanol for 5 seconds, washed with water for 5 minutes, and TBST for 15 minutes. The blots were blocked for 1 hour with 5% blocking reagent in TBS-T at room temperature and then washed 3 times with TBS-T (1×-15′; 2×5′ each) and probed with the primary antibody for Hif 1 alpha, Caspase 3 or PDHB in 5% BSA (at 1:200 by incubation overnight at 4 deg C. with gentle shaking. The primary antibody for Hif 1 alpha (Abcam ab2185; antirabbit) was at 1:500 dilution in 5% BSA. The primary antibody for Caspase 3 (Santacruz sc7272; antirabbit) was at 1:200 dilution in 5% BSA. The primary antibody for Pyruvate Dehydrogenase beta (PDHB) (Novus Biologicals H00005162-M03; antimouse) was at 1:500 dilution in 5% BSA. After incubation with primary antibodies, the membranes were washed 3 times with TBS-T (1×-15′; 2×5′ each) and probed with the secondary antibody (PDHB antimouse; Hif 1a and Caspase 3 antirabbit; 1:10,000 dilution) for 1 h at room temperature. After 1 h of incubation with secondary antibodies, the blots were washed 3 times with TBS-T (1×-15′; 2×5′ each) and then incubated with ECF reagent for 5 minutes and then each blot scanned with 5100 Fuji Laser scanner at 25 uM resolution, 16 bit, green laser, at 400V and at 500 V.
The above blots were stripped by incubating for 30 minutes with methanol, followed by two 10 minute washes with TBS-T, then 30 minutes of incubation with Stripping buffer at 50 deg C., and followed by two washes with 100 ml or more of TBS-T for 30′ each. The blots were activated with methanol for 5 seconds, washed with water for 5 minutes, and TBST for 15 minutes. The blots are blocked for 1 hour with 5% blocking reagent in TBS-T at room temperature and then washed 3 times with TBS-T (1×-15′; 2×5′ each) and probed with the primary antibody for Transaldolase or Hifla in 5% BSA by incubation overnight at 4 deg C. with gentle shaking. The primary antibody for Transaldolase (Abcam ab67467; antimouse) was at 1:500 dilution. The primary antibody for Hifla (Abcam ab2185; antirabbit) was at 1:500 dilution. After incubation with primary antibodies, the membranes were washed 3 times with TBS-T (1×-15′; 2×5′ each) and probed with the secondary antibody (antimouse or antirabbit; 1:10,000 dilution) for 1 h on the orbital tilting shaker at room temperature. After 1 h of incubation with secondary antibodies, the blots were washed 3 times with TBS-T (1×-15′; 2×5′ each) and then incubated with ECF reagent for 5 minutes and then each blot scanned with 5100 Fuji Laser scanner at 25 uM resolution, 16 bit, green laser, at 400 & 500V.
A general note: Immunoblotting shows a protein as a band on a membrane.

As for `COC1=C(OC)C(=O)C(C/C=C(\C)CC/C=C(\C)CC/C=C(\C)CC/C=C(\C)CC/C=C(\C)CC/C=C(\C)CC/C=C(\C)CC/C=C(\C)CC/C=C(\C)CCC=C(C)C)=C(C)C1=O` [Q10, Coenzyme Q10], the “genes modulated by Q10 treatment (Diabetes arrays)” value in assay [1] was “ABCC8, ACLY, ADRB3, CCL5, CEACAM1, CEBRA, FOXG1, FOXP3, G6PD, GLP1R, GPD1, HNF4A, ICAM1, IGFBP5, INPPL1, IRS2, MAPK14, ME1, NFKB1, PARP1, PIK3C2B, PIK3CD, PPARGC1B, PRKAG2, PTPN1, PYGL, SLC2A4, SNAP25, HNF1B, TNRFSF1A, TRIB3, VAPA, VEGFA, IL4R and IL6”. In addition, the “Hif1 alpha Lower Band Normalized Volume” value is 21664 in the assay with Hif1 alpha (5g48-50); 19540 in the assay on Hif1 alpha (5g48-100); 18486 in the assay on Hif1 alpha (22G24-50); 17919 in the assay with Hif1 alpha (22G24-100); 17496 in the assay with Hif1 alpha (22G48-50); 23111 in the assay with Hif1 alpha (22G48-100). The “Hif1 alpha Upper Band Normalized Volume” value in the assay on Hif1 alpha (HepG2, 5g24-50) is recorded as 8998; in the assay on Hif1 alpha (HepG2, 5g24-100) it was 9315; in the assay with Hif1 alpha (HepG2, 5g48-50), 8601; with Hif1 alpha (HepG2, 5g48-100), 10192; in the assay with Hif1 alpha (HepG2, 22G24-50), 14089; with Hif1 alpha (HepG2, 22G24-100), 8530. The “Hif1 alpha Upper Band Normalized Volume” value in the assay with Hif1 alpha (HepG2, 22G48-50) came out at 9416; with Hif1 alpha (HepG2, 22G48-100) it was 5608. For the same molecule, the “Hif1 alpha protein levels” value in the assay on Hif1 alpha (mitochondrial preparations of cancer cells) is recorded as “decreased”. Besides, in the assay with Hif1 alpha (whole cell lysates of normal cells), the Hif1a lower band result is recorded as “decrease”.
